Measured values: US10010547B2 (CASCADIAN THERAPEUTICS, INC., priority 2014, dated 2018)
Structures can show the parent of a compound that is named as a salt. Where two headings read alike, the source gives them in different places.

Legend:
MIA PaCa-2 cells = test: Gemcitabine Combination Cell Assay (Cell Titer Glo); format: cell-based; conditions: for IC50: Homo sapiens; for 10xLS: approximate concentration of Chk1 inhibitor that results in a 10-fold reduction in the IC50 of gemcitabine alone; for 2xLS: approximate concentration of Chk1 inhibitor that results in a two-fold reduction in the IC50 of gemcitabine alone
How it was run: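 MIA PaCa-2 cells were treated 72 h with half-log dilutions of Chk1 inhibitor (top 3000 nM) and gemcitabine (top 100 nM), alone and in full matrix; viability by CellTiter-Glo luminescence. IC50s from four-parameter fit; Chk1 inhibitor concentrations giving two- and ten-fold lowering of gemcitabine IC50 were estimated.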

Chk-1 kinase = Chk-1 kinase (Homo sapiens (Human), UniProt O14757); test: Chk-1 Kinase Inhibiting Activity (33P-ATP filter assay, CHKtide substrate); format: biochemical
Chain of Chk-1 kinase (O14757 whole entry): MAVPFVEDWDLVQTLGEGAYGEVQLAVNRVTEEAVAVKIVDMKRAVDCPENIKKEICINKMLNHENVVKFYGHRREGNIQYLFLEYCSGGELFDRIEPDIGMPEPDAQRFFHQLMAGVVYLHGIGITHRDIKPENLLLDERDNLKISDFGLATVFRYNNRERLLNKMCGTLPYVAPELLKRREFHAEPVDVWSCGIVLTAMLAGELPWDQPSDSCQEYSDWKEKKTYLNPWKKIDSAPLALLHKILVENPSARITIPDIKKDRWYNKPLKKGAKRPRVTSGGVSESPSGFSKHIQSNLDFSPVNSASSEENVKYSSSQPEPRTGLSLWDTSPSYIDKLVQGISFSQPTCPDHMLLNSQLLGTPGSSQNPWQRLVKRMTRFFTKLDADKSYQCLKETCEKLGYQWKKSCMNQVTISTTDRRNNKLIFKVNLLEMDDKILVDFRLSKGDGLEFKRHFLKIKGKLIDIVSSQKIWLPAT
How it was run: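 Full-length N-terminal GST-tagged human Chk-1 from insect cells, 0.5 nM final, with 20 μM peptide substrate and 33P-ATP in HEPES pH 7.5 buffer with 1% DMSO. Reaction ran 120 minutes at room temperature; incorporated radioactivity captured on P81 filters and counted for IC50.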

[1] = Chk1 inhibitor alone, MIA PaCa-2 cells, 72 h, read-out: Chk1 IC50
[2] = against Chk-1 kinase, read-out: IC50
[3] = MIA PaCa-2, 72 h, read-out: Chk1 IC50 (nM)

IC50 (MIA PaCa-2 cells; [1])	IC50 (Chk-1 kinase; [2])	Compound	10xLS (MIA PaCa-2 cells; MIA PaCa-2 cells, 72 h)	2xLS (MIA PaCa-2 cells; MIA PaCa-2 cells, 72 h)	IC50 (MIA PaCa-2 cells; [3])	IC50 (Chk-1 kinase)
743 nM	0.027 nM	COc1cc(CO[C@H]2CCN(C(C)C)C2)ccc1-c1cc(Nc2cnc(C#N)cn2)n[nH]1 [Example 139, 5-[[5-[4-[[(3S)-1-isopropylpyrrolidin-3-yl]oxymethyl]-2-methoxy-phenyl]-1H-pyrazol-3-yl]amino]pyrazine-2-carbonitrile]	300 nM	10 nM		
306 nM	0.082 nM	COc1cc(N2CCN(CC(C)C)CC2)ccc1-c1cc(Nc2cnc(C#N)cn2)n[nH]1 [Example 142, 5-[[5-[4-(4-isobutylpiperazin-1-yl)-2-methoxy-phenyl]-1H-pyrazol-3-yl]amino]pyrazine-2-carbonitrile]	100 nM	3 nM		
829 nM	0.026 nM	COc1cc(CC2CCN(C(C)C)CC2)ccc1-c1cc(Nc2cnc(C#N)cn2)n[nH]1 [Example 144, 5-[[5-[4-[(1-isopropyl-4-piperidyl)methyl]-2-methoxy-phenyl]-1H-pyrazol-3-yl]amino]pyrazine-2-carbonitrile]	<300 nM	10 nM		
267 nM	0.0084 nM	CCN1CCC(CN(C)c2ccc(-c3cc(Nc4cnc(C#N)cn4)n[nH]3)c(OC)c2)CC1 [Example 145, 5-[[5-[4-[(1-ethyl-4-piperidyl)methyl-methyl-amino]-2-methoxy-phenyl]-1H-pyrazol-3-yl]amino]pyrazine-2-carbonitrile]	<100 nM	<3 nM		
433 nM	0.012 nM	COc1cc(CNCC(C)C)ccc1-c1cc(Nc2cnc(C#N)cn2)n[nH]1 [Example 146, 5-[[5-[4-[(isobutylamino)methyl]-2-methoxy-phenyl]-1H-pyrazol-3-yl]amino]pyrazine-2-carbonitrile]	100 nM	3 nM		
254 nM	0.031 nM	COc1cc(N(C)CC2CCN(C(C)C)CC2)ccc1-c1cc(Nc2cnc(C#N)cn2)n[nH]1 [Example 148, 5-[[5-[4-[(1-isopropyl-4-piperidyl)methyl-methyl-amino]-2-methoxy-phenyl]-1H-pyrazol-3-yl]amino]pyrazine-2-carbonitrile]	<100 nM	<3 nM		

More lines, now with the values behind:

Compound	IC50 (MIA PaCa-2 cells; [1])	IC50 (Chk-1 kinase; [2])	10xLS (MIA PaCa-2 cells; MIA PaCa-2 cells, 72 h)	2xLS (MIA PaCa-2 cells; MIA PaCa-2 cells, 72 h)	IC50 (MIA PaCa-2 cells; [3])	IC50 (Chk-1 kinase)
CCN1CC[C@@H](OCc2ccc(-c3cc(Nc4cnc(C#N)cn4)n[nH]3)c(OC)c2)C1 [Example 140, 5-[[5-[4-[[(3R)-1-ethylpyrrolidin-3-yl]oxymethyl]-2-methoxy-phenyl]-1H-pyrazol-3-yl]amino]pyrazine-2-carbonitrile hydrochloride]		0.021 nM	<300 nM	<10 nM	618 nM	
COc1cc(CO[C@@H]2CCN(C(C)C)C2)ccc1-c1cc(Nc2cnc(C#N)cn2)n[nH]1 [Example 141, 5-[[5-[4-[[(3R)-1-isopropylpyrrolidin-3-yl]oxymethyl]-2-methoxy-phenyl]-1H-pyrazol-3-yl]amino]pyrazine-2-carbonitrile]	970 nM	0.019 nM	<300 nM	<10 nM		
CCN1CCC(Cc2ccc(-c3cc(Nc4cnc(C#N)cn4)n[nH]3)c(OC)c2)CC1 [Example 143, 5-[[5-[4-[(1-Ethyl-4-piperidyl)methyl]-2-methoxy-phenyl]-1H-pyrazol-3-yl]amino]pyrazine-2-carbonitrile hydrochloride]		0.021 nM	<300 nM	<10 nM	820 nM	
COc1cc([C@@H]2CN(C(C)C)CCO2)ccc1-c1cc(Nc2cnc(C#N)cn2)n[nH]1 [Example 147, 5-[[5-[4-[(2R)-4-isopropylmorpholin-2-yl]-2-methoxy-phenyl]-1H-pyrazol-3-yl]amino]pyrazine-2-carbonitrile]	1200 nM	0.16 nM	300 nM	10 nM		
N#Cc1cnc(Nc2cc(-c3ccc(N4CCNCC4)cc3OC(F)(F)F)[nH]n2)cn1 [Example 153]	1200 nM		1000 nM	100 nM		3.8 nM
